Assay results from patent publication US11077100B2, “Tetrahydroquinoline derivatives as P2X7 receptor antagonists” (RaQualia Pharma Inc., priority 2017, dated 2021).

What was measured:
rat P2X7 = rat P2X7 (Rattus norvegicus (Rat), UniProt Q64663); experiment: Rat P2X7 functional assay (Ca2+ influx, Fluo-4, FDSS); format: cell-based; conditions: HEK293 cells stably expressing rat P2X7; BzATP final 10 microM; 7-point dose-response; read-out: Antagonistic activities with respect to the rat P2X7 receptor (IC50)
Protocol: Rat P2X7 Functional Assay
The functional activity of compounds was determined by measuring changes in intracellular calcium concentration using a Ca^2+-sensitive fluorescent dye, Fluo-4 (Molecular Probes). The changes in fluorescent signal were monitored by the cell imaging technology by Hamamatsu Photonics's Functional Drug Screening System (FDSS). Increases in intracellular Ca^2+ concentration were readily detected upon activation with BzATP.
HEK293 cells stably expressing rat P2X7 (GenBank accession number NM_019256) were grown in Corning CellBIND cell culture flasks, in a 5% CO2 humidified incubator to about 80% confluence. Media composition consisted of Dulbecco's Modified Eagle Medium (high glucose), 10% fetal bovine serum ([…]), 100 units/[…] Penicillin, 100 microg/mL Streptomycin and 250 microg/mL Geneticine.
1. […] Plate-out HEK293-rat P2X7 cells (40 microL medium containing 5,000 cells per well) into poly-D-lysine coated 384-well plates (BD Falcon) at 24 h prior to assay.
2. Incubate at 37° C. in 5% CO2.
3. Incubate the plate at 37° C. in 5% CO2 for 1 h.
5. Test compounds were prepared at 100× the test concentration in DMSO by serial dilution with Biomek-FX liquid handling instrument. 33× diluted compound solutions in assay buffer were prepared in intermediate compound plate with Biomek-NX liquid handling instrument. A further 3× dilution occurred in below steps 6 and 7.
6. Add 20 microL of 33× diluted compound solutions into each well and leave the plate for 10 min under the dark at room temperature.
7. Measure activity by FDSS as follows: • Set the assay plate on the stacker of FDSS. • Start the detection of fluorescence intensity at 540 nm by 480 nm exicitation. • After 30 seconds, add 20 microL of assay buffer containing 30 microM BzATP (final 10 microM).
IC50 values for compounds of the present invention were determined from 7-point dose-response studies. Curves were generated using the average of duplicate wells for each data point. Finally, the IC50 values are calculated with the best-fit dose curve determined by XLfit (ID Business Solutions Ltd.).

human P2X7 = human P2X7 (Homo sapiens (Human), UniProt Q99572); experiment: Human P2X7 functional assay (Ca2+ influx, Fluo-4, FDSS); format: cell-based; conditions: antagonistic activity with respect to the human P2X7 receptor; BzATP final concentration 80 microM
How it was run: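 HEK293 cells stably expressing C-terminally FLAG-tagged human P2X7, loaded with Fluo-4. Compounds were preincubated for 10 min at room temperature, then 80 μM BzATP (final) was added and Ca2+ fluorescence read at 540 nm (480 nm excitation) by FDSS. IC50 values come from 7-point curves, duplicate wells.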

Sequence of human P2X7 (Q99572 whole entry): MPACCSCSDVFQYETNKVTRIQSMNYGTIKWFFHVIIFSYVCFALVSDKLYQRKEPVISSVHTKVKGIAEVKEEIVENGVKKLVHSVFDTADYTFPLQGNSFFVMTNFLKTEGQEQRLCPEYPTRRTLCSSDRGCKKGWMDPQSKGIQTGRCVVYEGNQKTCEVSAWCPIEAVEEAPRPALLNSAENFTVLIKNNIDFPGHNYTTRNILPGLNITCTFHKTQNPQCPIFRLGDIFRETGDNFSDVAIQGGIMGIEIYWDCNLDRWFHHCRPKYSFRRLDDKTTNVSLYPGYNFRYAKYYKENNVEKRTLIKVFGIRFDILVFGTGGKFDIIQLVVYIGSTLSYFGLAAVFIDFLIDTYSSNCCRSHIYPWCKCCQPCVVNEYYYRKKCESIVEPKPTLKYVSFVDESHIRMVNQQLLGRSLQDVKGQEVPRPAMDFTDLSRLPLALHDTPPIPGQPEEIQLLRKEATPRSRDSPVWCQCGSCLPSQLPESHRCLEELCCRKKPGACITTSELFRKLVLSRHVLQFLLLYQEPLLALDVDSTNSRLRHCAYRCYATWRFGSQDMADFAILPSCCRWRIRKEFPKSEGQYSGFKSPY
Sequence of rat P2X7 (Q64663 whole entry): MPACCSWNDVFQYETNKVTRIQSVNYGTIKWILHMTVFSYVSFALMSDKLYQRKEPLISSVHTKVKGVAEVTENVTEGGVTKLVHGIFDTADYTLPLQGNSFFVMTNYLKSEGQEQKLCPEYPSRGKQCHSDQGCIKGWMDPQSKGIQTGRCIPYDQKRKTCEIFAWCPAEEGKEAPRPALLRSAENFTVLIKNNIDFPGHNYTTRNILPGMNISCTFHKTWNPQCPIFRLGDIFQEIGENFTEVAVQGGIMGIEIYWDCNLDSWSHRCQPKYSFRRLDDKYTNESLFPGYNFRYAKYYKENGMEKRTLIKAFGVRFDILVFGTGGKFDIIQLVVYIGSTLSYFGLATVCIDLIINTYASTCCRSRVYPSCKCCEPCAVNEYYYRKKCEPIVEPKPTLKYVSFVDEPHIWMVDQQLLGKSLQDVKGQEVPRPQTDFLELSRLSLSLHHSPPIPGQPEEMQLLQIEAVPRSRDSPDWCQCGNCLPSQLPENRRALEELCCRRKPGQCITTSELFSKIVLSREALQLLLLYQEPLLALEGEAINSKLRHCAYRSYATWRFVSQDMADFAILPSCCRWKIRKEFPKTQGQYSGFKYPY

Row | SMILES | IC50 (rat P2X7) | IC50 (human P2X7)
1 | CNCC1(O)CCC(F)(C(=O)NCc2c(C)cc(Cl)cc2Cl)c2cccnc21 (stereo not drawn) [Example 46, N-(2,4-dichloro-6-methylbenzyl)-5-fluoro-8-hydroxy-8-((methyl-amino)methyl)-5,6,7,8-tetra-hydroquinoline-5-carboxamide] | < 1000 nM | < 50 nM
2 | Cc1cc(Cl)cc(Cl)c1CNC(=O)C1(F)CCC(O)(CN(C)C)c2ncccc21 (stereo not drawn) [Example 47, N-(2,4-dichloro-6-meth-ylbenzyl)-8-((dimeth-ylamino)meth-yl)-5-fluoro-8-hydroxy-5,6,7,8-tetrahydroquinoline-5-carboxamide] | < 1000 nM | < 50 nM
3 | NCC1(O)CCC(F)(C(=O)NCc2cccc(C(F)(F)F)c2Cl)c2cccnc21 (stereo not drawn) [Example 48, 8-(aminomethyl)-N-(2-chloro-3-(trifluoro-methyl)benzyl)-5-fluoro-8-hy-droxy-5,6,7,8-tetra-hydroquinoline-5-carboxamide] | < 1000 nM | < 50 nM
4 | CNCC1(O)CCC(F)(C(=O)NCc2cccc(C(F)(F)F)c2Cl)c2cccnc21 (stereo not drawn) [Example 49, N-(2-chloro-3-(trifluorometh-yl)benzyl)-5-fluoro-8-hydroxy-8-((methylamino)meth-yl)-5,6,7,8-tetrahydroquinoline-5-carboxamide] | < 1000 nM | < 50 nM
5 | CN(C)CC1(O)CCC(F)(C(=O)NCc2cccc(C(F)(F)F)c2Cl)c2cccnc21 (stereo not drawn) [Example 50, N-(2-chloro-3-(trifluoro-methyl)benzyl)-8-((di-methylamino)methyl)-5-fluoro-8-hydroxy-5,6,7,8-tetrahydroquinoline-5-carboxamide] | < 1000 nM | < 50 nM
6 | CC1(O)CCC(F)(C(=O)NCc2cccc(C(F)(F)F)c2Cl)c2cccnc21 (stereo not drawn) [Example 58, N-(2-chloro-3-(trifluoro-methyl)benzyl)-5-fluoro-8-hydroxy-8-methyl-5,6,7,8-tetrahydro-quinoline-5-carboxamide] | < 1000 nM | < 50 nM
7 | O=C(NCc1ccc(Cl)cc1Cl)[C@@H]1CC[C@H](O)c2ncccc21 [Example 66, (5R,8S)-N-(2,4-dichloro-benzyl)-8-hydroxy-5,6,7,8-tetrahydroquinoline-5-carboxamide] | < 1000 nM | < 50 nM
8 | O=C(NCc1ccc(F)cc1Cl)[C@H]1CC[C@H](O)c2ncccc21 [Example 67, (5S,8S)-N-(2-chloro-4-fluorobenzyl)-8-hydroxy-5,6,7,8-tetrahydroquinoline-5-carboxamide] | < 1000 nM | 101 to 300 nM
9 | O=C(NCc1ccc(F)cc1Cl)[C@@H]1CC[C@H](O)c2ncccc21 [Example 68, (5R,8S)-N-(2-chloro-4-fluorobenzyl)-8-hydroxy-5,6,7,8-tetrahydroquinoline-5-carboxamide] | < 1000 nM | < 50 nM
10 | O=C(NCc1c(F)cc(Cl)cc1Cl)[C@@H]1CC[C@H](O)c2ncccc21 [Example 70, (5R,8S)-N-(2,4-dichloro-6-fluorobenzyl)-8-hy-droxy-5,6,7,8-tetrahydro-quinoline-5-carboxamide] | < 1000 nM | < 50 nM
11 | O=C(NCc1ccc(F)c(F)c1F)[C@@H]1CC[C@H](O)c2ncccc21 [Example 72, (5R,8S)-8-hydroxy-N-(2,3,4-trifluorobenzyl)-5,6,7,8-tetrahydroquinoline-5-carboxamide] | < 1000 nM | < 50 nM
12 | O=C(NCc1ccc(F)cc1F)[C@@H]1CC[C@H](O)c2ncccc21 [Example 74, (5R,8S)-N-(2,4-difluoro-benzyl)-8-hydroxy-5,6,7,8-tetrahydroquinoline-5-carboxamide] | < 1000 nM | 101 to 300 nM
13 | O=C(NCc1ccc(F)cc1C(F)(F)F)[C@@H]1CC[C@H](O)c2ncccc21 [Example 76, (5R,8S)-N-(4-fluoro-2-(tri-fluromethyl)benzyl)-8-hydroxy-5,6,7,8-tetra-hydroquinoline-5-carboxamide] | < 1000 nM | 50 to 100 nM
14 | O=C(NCc1ccc(Cl)cc1F)[C@@H]1CC[C@H](O)c2ncccc21 [Example 78, (5R,8S)-N-(4-chloro-2-fluorobenzyl)-8-hydroxy-5,6,7,8-tetrahydroquinoline-5-carboxamide] | < 1000 nM | < 50 nM
15 | O=C(NCc1ccc(Br)cc1F)[C@@H]1CC[C@H](O)c2ncccc21 [Example 80, (5R,8S)-N-(4-bromo-2-fluorobenzyl)-8-hydroxy-5,6,7,8-tetrahydroquinoline-5-carboxamide] | < 1000 nM | 50 to 100 nM
16 | O=C(NCc1ccc(F)c(F)c1Cl)[C@H]1CC[C@H](O)c2ncccc21 [Example 81, (5S,8S)-N-(2-chloro-3,4-difluorobenzyl)-8-hy-droxy-5,6,7,8-tetrahydro-auinoline-5-carboxamide] | < 1000 nM | < 50 nM

Second part, the compound after the results:

Row | IC50 (rat P2X7) | IC50 (human P2X7) | SMILES
17 | < 1000 nM | < 50 nM | Cc1cc(Cl)cc(Cl)c1CNC(=O)C1CCC(O)(CO)c2ncccc21 (stereo not drawn) [Example 33, N-(2,4-dichloro-6-methylbenzyl)-8-hy-droxy-8-(hydroxymethyl)-5,6,7,8-tetra-hydroxuqinoline-5-carboxamide]
18 | < 1000 nM | < 50 nM | Cc1cc(Cl)cc(Cl)c1CNC(=O)C1(F)CCC(O)(CO)c2ncccc21 (stereo not drawn) [Example 34, N-(2,4-dichloro-6-methylbenzyl)-5-fluoro-8-hydroxy-8-(hydroxymethyl)-5,6,7,8-tetrahydroquinoline-5-carboxamide]
19 | < 1000 nM | < 50 nM | O=C(NCc1cccc(C(F)(F)F)c1Cl)C1(F)CCC(O)(CO)c2ncccc21 (stereo not drawn) [Example 35, N-(2-chloro-3-(trifluoromethyl)benzyl)-5-fluoro-8-hydroxy-8-(hydroxymethyl)-5,6,7,8-tetrahydroquinoline-5-carboxamide]
20 | < 1000 nM | < 50 nM | O=C(NCc1cccc(Cl)c1Cl)C1(F)CCC(O)(CO)c2ncccc21 (stereo not drawn) [Example 36, N-(2,3-dichlorobenzyl)-5-fluoro-8-hy-droxy-8-(hydroxymethyl)-5,6,7,8-tetra-hydroquinoline-5-carboxamide]
21 | < 1000 nM | < 50 nM | O=C(NCc1ccc(Cl)cc1Cl)C1(F)CCC(O)(CO)c2ncccc21 (stereo not drawn) [Example 37, N-(2,4-dichlorobenzyl)-5-fluoro-8-hy-droxy-8-(hydroxymethyl)-5,6,7,8-tetra-hydroquinoline-5-carboxamide]
22 | < 1000 nM | 101 to 300 nM | O=C(NCc1ccc(Cl)cc1Cl)C1(F)CC(O)(CO)c2ncccc21 (stereo not drawn) [Example 38, N-(2,4-dichlorobenzyl)-5-fluoro-7-hydroxy-7-(hydroxymethyl)-6,7-dihydro-5H-cyclopenta[b]pyridine-5-carboxamide]
23 | < 1000 nM | < 50 nM | COCC1(O)CCC(F)(C(=O)NCc2c(C)cc(Cl)cc2Cl)c2cccnc21 (stereo not drawn) [Example 39, N-(2,4-dichloro-6-methylbenzyl)-5-fluoro-8-hydroxy-8-(methoxymethyl)-5,6,7,8-tetrahydro-quinoline-5-carboxamide]
24 | < 1000 nM | < 50 nM | COCC1(O)CCC(F)(C(=O)NCc2cccc(C(F)(F)F)c2Cl)c2cccnc21 (stereo not drawn) [Example 40, N-(2-chloro-3-(tri-fluoromethyl)benzyl)-5-fluoro-8-hydroxy-8-(methoxy-methyl)-5,6,7,8-tetra-hydroquinoline-5-carboxamide]
25 | < 1000 nM | < 50 nM | Cc1cc(Cl)cc(Cl)c1CNC(=O)C1CCC(O)(CN)c2ncccc21 (stereo not drawn) [Example 43, 8-(aminomethyl)-N-(2,4-dichloro-6-meth-ylbenzyl)-8-hydroxy-5,6,7,8-tetrahydroquinoline-5-carboxamide]
26 | < 1000 nM | < 50 nM | CNCC1(O)CCC(C(=O)NCc2c(C)cc(Cl)cc2Cl)c2cccnc21 (stereo not drawn) [Example 44, N-(2,4-dichloro-6-methylbenzyl)-8-hydroxy-8-((methyl-amino)methyl)-5,6,7,8-tetrahydro-quinoline-5-carboxamide]
27 | < 1000 nM | < 50 nM | Cc1cc(Cl)cc(Cl)c1CNC(=O)C1(F)CCC(O)(CN)c2ncccc21 (stereo not drawn) [Example 45, 8-(aminomethyl)-N-(2,4-dichloro-6-methylbenzyl)-5-fluoro-8-hydroxy-5,6,7,8-tetrahydro-quinoline-5-carboxamide]
